Source: ChEMBL document CHEMBL5634130, “Exploring the structural-activity relationship of hexahydropyrazino[1,2-d]pyrido[3,2-b][1,4]oxazine derivatives as potent and orally-bioavailable PARP7 inhibitors” (Eur J Med Chem, 2023)
Values after ≈ are worked out from the molar mass of the structure shown.

Columns and labels:
[1] = Thermodynamic solubility of compound at pH 6.5; format: physicochemical; details: buffer, read-out: Therm_solubility
[2] = Half life in fasted ICR mouse at 2 mg/kg, iv measured for 24 hrs by LC-MS analysis; format: ADME, organism-based; details: in vivo
[3] = Apparent permeability across apical to basolateral side in MDCKII-MDR1 cells incubated for 2 hrs by LC-MS analysis; format: ADME, cell-based, Canis lupus familiaris; details: dog, MDCK-MDR1
Cytochrome P450 3A4 = Cytochrome P450 3A4 (Homo sapiens, UniProt P08684); assay: Inhibition of CYP3A4 in human liver microsomes using midazolam as substrate preincubated for 10 mins followed by substrate addition measured for 30 mins by LC-MS analysis; format: ADME, Microsome
Sequence of Cytochrome P450 3A4 (P08684 whole entry): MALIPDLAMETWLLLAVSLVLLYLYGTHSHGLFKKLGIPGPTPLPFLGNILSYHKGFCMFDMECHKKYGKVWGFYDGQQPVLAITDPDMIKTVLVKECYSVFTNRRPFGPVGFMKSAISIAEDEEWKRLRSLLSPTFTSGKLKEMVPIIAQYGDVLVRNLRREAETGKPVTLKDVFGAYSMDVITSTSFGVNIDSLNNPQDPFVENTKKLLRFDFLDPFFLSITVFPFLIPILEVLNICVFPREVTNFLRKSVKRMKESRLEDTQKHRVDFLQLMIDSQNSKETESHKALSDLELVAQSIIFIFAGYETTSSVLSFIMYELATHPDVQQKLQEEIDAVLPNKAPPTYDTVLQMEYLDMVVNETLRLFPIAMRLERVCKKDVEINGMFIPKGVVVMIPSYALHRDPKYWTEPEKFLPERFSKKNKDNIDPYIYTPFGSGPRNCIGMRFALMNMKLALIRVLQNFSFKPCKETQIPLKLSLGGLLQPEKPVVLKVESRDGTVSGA

[4] = Kinetic solubility of compound at pH 6.5; format: physicochemical; details: buffer, read-out: Kinetic_solubility
[5] = Tmax in fasted Beagle dog at 10 mg/kg, po measured for 24 hrs by LC-MS analysis; format: ADME, organism-based, Canis lupus familiaris; details: in vivo
[6] = Passive permeability in MDCKII-MDR1 cells incubated for 2 hrs by LC-MS analysis; format: ADME, cell-based, Canis lupus familiaris; details: dog, MDCK-MDR1, read-out: permeability
[7] = Metabolic stability in mouse liver microsomes assessed as intrinsic clearance preincubated for 5 mins followed by NADPH addition measured for 1 hr by LC-MS analysis; format: ADME, Microsome; details: time 65 min, read-out: CLH
[8] = Volume of distribution at steady state in fasted ICR mouse at 2 mg/kg, iv measured for 24 hrs by LC-MS analysis; format: ADME, organism-based; details: in vivo, read-out: Vdss
[9] = Thermodynamic solubility of compound at pH 2; format: physicochemical; details: buffer, read-out: Therm_solubility
[10] = Metabolic stability in human liver microsomes assessed as intrinsic clearance preincubated for 5 mins followed by NADPH addition measured for 1 hr by LC-MS analysis; format: ADME, Microsome; details: time 65 min, read-out: CLH
[11] = Half life in fasted ICR mouse at 10 mg/kg, po measured for 24 hrs by LC-MS analysis; format: ADME, organism-based; details: in vivo
NCI-H1373 = assay: Antitumor activity against human NCI-H1373 cells xenografted in […] SCID mouse model assessed as tumor growth inhibition at 30 mg/kg, po administered everyday measured after 21 days relative to control; format: functional; details: NCI-H1373, 504 h, time 21 day, read-out: TGI
[12] = AUC in fasted ICR mouse at 10 mg/kg, po measured for 24 hrs by LC-MS analysis; format: ADME, organism-based; details: in vivo
[13] = Kinetic solubility of compound at pH 2; format: physicochemical; details: buffer, read-out: Kinetic_solubility
[14] = Half life in fasted Beagle dog at 10 mg/kg, po measured for 24 hrs by LC-MS analysis; format: ADME, organism-based, Canis lupus familiaris; details: in vivo
[15] = Plasma protein binding in dog at 2 uM incubated for 1 hr by LC/MS analysis; format: ADME, cell-free, Canis lupus familiaris; details: read-out: PPB (converted)
Cytochrome P450 2D6 = Cytochrome P450 2D6 (Homo sapiens, UniProt P10635); assay: Inhibition of CYP2D6 in human liver microsomes using dextromethorphan as substrate preincubated for 10 mins followed by substrate addition measured for 30 mins by LC-MS analysis; format: ADME, Microsome
Sequence of Cytochrome P450 2D6 (P10635 whole entry): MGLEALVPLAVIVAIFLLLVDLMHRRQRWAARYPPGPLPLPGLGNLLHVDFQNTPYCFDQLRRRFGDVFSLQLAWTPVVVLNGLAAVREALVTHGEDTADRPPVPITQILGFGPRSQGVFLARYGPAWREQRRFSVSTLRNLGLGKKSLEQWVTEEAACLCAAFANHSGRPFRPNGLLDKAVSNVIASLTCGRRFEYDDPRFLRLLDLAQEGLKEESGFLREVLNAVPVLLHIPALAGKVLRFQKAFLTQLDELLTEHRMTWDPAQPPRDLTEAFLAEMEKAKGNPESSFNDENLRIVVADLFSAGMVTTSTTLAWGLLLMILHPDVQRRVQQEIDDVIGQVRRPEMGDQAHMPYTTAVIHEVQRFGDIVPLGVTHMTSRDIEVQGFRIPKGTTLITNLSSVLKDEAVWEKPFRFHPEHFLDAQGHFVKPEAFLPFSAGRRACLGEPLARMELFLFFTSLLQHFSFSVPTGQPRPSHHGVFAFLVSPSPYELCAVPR

Cytochrome P450 2C19 = Cytochrome P450 2C19 (Homo sapiens, UniProt P33261); assay: Inhibition of CYP2C19 in human liver microsomes using mephenytoin as substrate preincubated for 10 mins followed by substrate addition measured for 30 mins by LC-MS analysis; format: ADME, Microsome
Sequence of Cytochrome P450 2C19 (P33261 whole entry): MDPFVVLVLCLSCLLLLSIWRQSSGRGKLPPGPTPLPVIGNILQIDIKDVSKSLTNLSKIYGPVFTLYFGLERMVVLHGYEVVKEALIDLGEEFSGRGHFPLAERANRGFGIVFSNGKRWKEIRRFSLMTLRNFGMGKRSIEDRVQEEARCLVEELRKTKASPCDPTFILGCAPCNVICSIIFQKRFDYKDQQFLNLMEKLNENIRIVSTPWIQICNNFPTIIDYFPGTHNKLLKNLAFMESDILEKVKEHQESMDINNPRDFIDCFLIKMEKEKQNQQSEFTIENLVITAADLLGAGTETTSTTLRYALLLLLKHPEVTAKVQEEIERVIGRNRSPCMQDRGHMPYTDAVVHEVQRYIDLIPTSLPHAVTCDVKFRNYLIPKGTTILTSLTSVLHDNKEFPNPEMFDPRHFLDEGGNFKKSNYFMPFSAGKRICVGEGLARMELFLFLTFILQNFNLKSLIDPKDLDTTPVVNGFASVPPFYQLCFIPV

[16] = Plasma protein binding in human at 2 uM incubated for 1 hr by LC/MS analysis; format: ADME, cell-free; details: read-out: PPB (converted)
[17] = Toxicity in […] SCID mouse model xenografted with human NCI-H1373 cells assessed as animal death at 30 mg/kg, po measured for 21 days; format: organism-based; details: in vivo, 504 h, time 21 day
[18] = Half life in fasted Beagle dog at 2 mg/kg, iv measured for 24 hrs by LC-MS analysis; format: ADME, organism-based, Canis lupus familiaris; details: in vivo
[19] = Kinetic solubility of compound at pH 7.4; format: physicochemical; details: buffer, read-out: Kinetic_solubility
[20] = Plasma protein binding in monkey at 2 uM incubated for 1 hr by LC/MS analysis; format: ADME, cell-free, Macaca mulatta; details: rhesus monkey, read-out: PPB (converted)
[21] = Cmax in fasted ICR mouse at 10 mg/kg, po measured for 24 hrs by LC-MS analysis; format: ADME, organism-based; details: in vivo
[22] = AUC in fasted Beagle dog at 10 mg/kg, po measured for 24 hrs by LC-MS analysis; format: ADME, organism-based, Canis lupus familiaris; details: in vivo
[23] = Tmax in fasted ICR mouse at 10 mg/kg, po measured for 24 hrs by LC-MS analysis; format: ADME, organism-based; details: in vivo
Cytochrome P450 1A2 = molecular target: T1, Cytochrome P450 1A2 (Homo sapiens, UniProt P05177); assay: Inhibition of CYP1A2 in human liver microsomes using phenacetin as substrate preincubated for 10 mins followed by substrate addition measured for 30 mins by LC-MS analysis; format: ADME, Microsome
T1 sequence (P05177 whole entry): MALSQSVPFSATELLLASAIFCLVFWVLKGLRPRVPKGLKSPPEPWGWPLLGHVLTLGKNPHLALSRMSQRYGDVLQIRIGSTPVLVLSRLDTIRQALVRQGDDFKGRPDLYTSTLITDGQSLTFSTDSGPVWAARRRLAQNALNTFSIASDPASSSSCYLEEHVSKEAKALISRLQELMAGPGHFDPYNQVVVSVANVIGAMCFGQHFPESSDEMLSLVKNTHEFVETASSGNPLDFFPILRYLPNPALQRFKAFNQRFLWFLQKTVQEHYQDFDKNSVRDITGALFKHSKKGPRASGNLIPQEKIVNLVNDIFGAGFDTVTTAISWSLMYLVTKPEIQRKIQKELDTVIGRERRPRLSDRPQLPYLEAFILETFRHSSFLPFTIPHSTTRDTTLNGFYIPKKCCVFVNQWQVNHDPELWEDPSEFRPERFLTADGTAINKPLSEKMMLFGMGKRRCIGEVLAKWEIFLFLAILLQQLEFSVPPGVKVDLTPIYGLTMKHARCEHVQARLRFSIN

Cytochrome P450 2C9 = Cytochrome P450 2C9 (Homo sapiens, UniProt P11712); assay: Inhibition of CYP2C9 in human liver microsomes using diclofenac as substrate preincubated for 10 mins followed by substrate addition measured for 30 mins by LC-MS analysis; format: ADME, Microsome
Sequence of Cytochrome P450 2C9 (P11712 whole entry): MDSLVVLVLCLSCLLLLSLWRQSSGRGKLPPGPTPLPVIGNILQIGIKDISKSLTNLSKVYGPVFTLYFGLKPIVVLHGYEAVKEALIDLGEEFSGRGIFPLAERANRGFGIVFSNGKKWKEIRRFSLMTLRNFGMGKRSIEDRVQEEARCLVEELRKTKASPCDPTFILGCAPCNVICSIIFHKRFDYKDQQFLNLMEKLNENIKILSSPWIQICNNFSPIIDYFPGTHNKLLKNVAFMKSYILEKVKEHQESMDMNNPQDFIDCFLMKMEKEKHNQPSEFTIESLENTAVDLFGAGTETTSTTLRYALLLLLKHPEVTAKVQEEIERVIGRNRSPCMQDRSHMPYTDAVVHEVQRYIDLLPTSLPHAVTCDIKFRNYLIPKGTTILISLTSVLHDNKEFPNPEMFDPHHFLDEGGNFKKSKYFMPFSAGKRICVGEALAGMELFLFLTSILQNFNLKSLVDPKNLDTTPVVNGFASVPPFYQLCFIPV

[24] = Plasma protein binding in mouse at 2 uM incubated for 1 hr by LC/MS analysis; format: ADME, cell-free; details: read-out: PPB (converted)
[25] = Plasma protein binding in rat at 2 uM incubated for 1 hr by LC/MS analysis; format: ADME, cell-free; details: read-out: PPB (converted)
[26] = AUC in fasted ICR mouse at 2 mg/kg, iv measured for 24 hrs by LC-MS analysis; format: ADME, organism-based; details: in vivo
[27] = Clearance in fasted ICR mouse at 2 mg/kg, iv measured for 24 hrs by LC-MS analysis; format: ADME, organism-based; details: in vivo
[28] = Metabolic stability in monkey liver microsomes assessed as intrinsic clearance preincubated for 5 mins followed by NADPH addition measured for 1 hr by LC-MS analysis; format: ADME, Macaca mulatta, Microsome; details: rhesus monkey, time 65 min, read-out: CLH
[29] = Metabolic stability in dog liver microsomes assessed as intrinsic clearance preincubated for 5 mins followed by NADPH addition measured for 1 hr by LC-MS analysis; format: ADME, Canis lupus familiaris, Microsome; details: time 65 min, read-out: CLH
[30] = Thermodynamic solubility of compound at pH 7.4; format: physicochemical; details: buffer, read-out: Therm_solubility
[31] = Volume of distribution at steady state in fasted Beagle dog at 2 mg/kg, iv measured for 24 hrs by LC-MS analysis; format: ADME, organism-based, Canis lupus familiaris; details: in vivo, read-out: Vdss
[32] = Cmax in fasted Beagle dog at 10 mg/kg, po measured for 24 hrs by LC-MS analysis; format: ADME, organism-based, Canis lupus familiaris; details: in vivo
[33] = Toxicity in […] SCID mouse model xenografted with human NCI-H1373 cells assessed as body weight loss at 30 mg/kg, po measured for 21 days; format: organism-based; details: in vivo, 504 h, time 21 day
[34] = Apparent permeability across basolateral to apical side in MDCKII-MDR1 cells incubated for 2 hrs by LC-MS analysis; format: ADME, cell-based, Canis lupus familiaris; details: dog, MDCK-MDR1
[35] = Metabolic stability in rat liver microsomes assessed as intrinsic clearance preincubated for 5 mins followed by NADPH addition measured for 1 hr by LC-MS analysis; format: ADME, Microsome; details: time 65 min, read-out: CLH
[36] = Oral bioavailability in fasted Beagle dog at 10 mg/kg measured for 24 hrs by LC-MS analysis; format: ADME, organism-based, Canis lupus familiaris; details: in vivo
[37] = AUC in fasted Beagle dog at 2 mg/kg, iv measured for 24 hrs by LC-MS analysis; format: ADME, organism-based, Canis lupus familiaris; details: in vivo, iv, 2 mg/kg, 24 h
[38] = Oral bioavailability in fasted ICR mouse at 10 mg/kg measured for 24 hrs by LC-MS analysis; format: ADME, organism-based; details: in vivo

C[C@@H](COCCC(=O)N1CCN(c2ncc(C(F)(F)F)cn2)CC1)Nc1cn[nH]c(=O)c1C(F)(F)F [ATAMPARIB]
solubility thermodynamic [1]: 54.6 µg/mL (≈ 104 µM)
half-life [2]: 0.2 h
Papp A→B at 2 h [3]: 0.28 ×10⁻⁶ cm/s
IC50 (Cytochrome P450 3A4): > 30 µM
solubility kinetic [4]: 151 µM (≈ 79 µg/mL)
Tmax [5]: 1.33 h
Papp at 2 h [6]: 1.03 ×10⁻⁶ cm/s
CLint scaled [7]: 345 mL/min/kg
Vd [8]: 0.714 L/kg
solubility thermodynamic [9]: 68.9 µg/mL (≈ 132 µM)
CLint scaled [10]: 23.2 mL/min/kg
t1/2 [11]: 2.7 h
inhibition in vivo at 30 mg/kg (NCI-H1373): 62.7%
AUC [12]: 617 ng·h/mL
solubility kinetic [13]: 158 µM (≈ 82.7 µg/mL)
t1/2 [14]: 2.5 h
fraction unbound at 1 h, 2 µM [15]: 0.131
IC50 (Cytochrome P450 2D6): > 30 µM
IC50 (Cytochrome P450 2C19): > 30 µM
fraction unbound at 1 h, 2 µM [16]: 0.194
Activity [17]: Non-Toxic
half-life [18]: 1 h
solubility kinetic [19]: 158 µM (≈ 82.7 µg/mL)
fraction unbound at 1 h, 2 µM [20]: 0.347
Cmax [21]: 995 ng/mL
AUC [22]: 5508 ng·h/mL
Tmax [23]: 0.25 h
IC50 (Cytochrome P450 1A2): > 30 µM
IC50 (Cytochrome P450 2C9): 3.13 µM
fraction unbound at 1 h, 2 µM [24]: 0.123
fraction unbound at 1 h, 2 µM [25]: 0.233
AUC at 24 h [26]: 470 ng·h/mL
clearance [27]: 72.6 mL/min/kg
CLint scaled [28]: 94.8 mL/min/kg
CLint scaled [29]: 17.1 mL/min/kg
solubility thermodynamic [30]: 52.8 µg/mL (≈ 101 µM)
Vd [31]: 1.7 L/kg
Cmax [32]: 1800 ng/mL
Activity [33]: Non-Toxic
Papp B→A at 2 h [34]: 3.78 ×10⁻⁶ cm/s
CLint scaled [35]: 110 mL/min/kg
bioavailability [36]: 23.4%
AUC [37]: 4694 ng·h/mL
bioavailability [38]: 26.2%
